Source: patent US20080293771A1, “AZACYCLYLBENZAMIDE DERIVATIVES AS HISTAMINE-3 ANTAGONISTS” (Wyeth, priority 2007, published 2008)
Structures can show the parent of a compound that is named as a salt.

SMILES | melting point
Cc1nc2ccccc2n1-c1ccc(C(=O)N(C)[C@@H]2CCN(CC3CCCCC3)C2)cc1 (as salt: hydrochloride) | 184 to 185 °C
Cc1nc2ccccc2n1-c1ccc(C(=O)N(C)[C@@H]2CCN(C(C)C)C2)cc1 (as salt: hydrochloride) | 181 to 183 °C
Cc1nc2ccccc2n1-c1ccc(C(=O)N(C)[C@@H]2CCN(C3CCC3)C2)cc1 (as salt: hydrochloride) | 175 to 176 °C
Cc1nc2ccccc2n1-c1ccc(C(=O)N(C)[C@@H]2CCN(C3CCCC3)C2)cc1 (as salt: hydrochloride) | 186 to 187 °C
Cc1nc2ccccc2n1-c1ccc(C(=O)N(C)[C@@H]2CCN(C3CCOCC3)C2)cc1 (as salt: hydrochloride) | 200 to 202 °C
Cc1nc2ccccc2n1-c1ccc(C(=O)N(C)[C@@H]2CCN(C3CC4CCC3C4)C2)cc1 (stereo partly shown) (as salt: hydrochloride) | 205 to 207 °C
Cc1nc2ccccc2n1-c1ccc(C(=O)N(C)[C@@H]2CCN(C3C4CC5CC(C4)CC3C5)C2)cc1 (stereo partly shown) (as salt: hydrochloride) | 257 to 259 °C
Cc1nc2ccccc2n1-c1ccc(C(=O)N(C)[C@H]2CCN(C(C)C)C2)cc1 (as salt: hydrochloride) | 190 to 192 °C
Cc1nc2ccccc2n1-c1ccc(C(=O)N(C)[C@H]2CCN(C3CCC3)C2)cc1 (as salt: hydrochloride) | 184 to 185 °C
Cc1nc2ccccc2n1-c1ccc(C(=O)N(C)[C@H]2CCN(C3CCCC3)C2)cc1 (as salt: hydrochloride) | 165 to 166 °C
Cc1nc2ccccc2n1-c1ccc(C(=O)N(C)[C@H]2CCN(C3CCCCC3)C2)cc1 (as salt: hydrochloride) | 170 to 172 °C
Cc1nc2ccccc2n1-c1ccc(C(=O)N(C)[C@H]2CCN(C3CCC(C)C3)C2)cc1 (stereo partly shown) (as salt: hydrochloride) | 173 to 175 °C
Cc1nc2ccccc2n1-c1ccc(C(=O)N(C)[C@H]2CCN(C3CC[C@@H](C)C3)C2)cc1 (stereo partly shown) (as salt: hydrochloride) | 175 to 177 °C
Cc1nc2ccccc2n1-c1ccc(C(=O)N(C)[C@H]2CCN(C3CCCCC3C)C2)cc1 (stereo partly shown) (as salt: hydrochloride) | 195 to 196 °C
Cc1nc2ccccc2n1-c1ccc(C(=O)N(C)[C@H]2CCN(C3CCC[C@@H](C)C3)C2)cc1 (stereo partly shown) (as salt: hydrochloride) | 187 to 189 °C
Cc1nc2ccccc2n1-c1ccc(C(=O)N(C)[C@H]2CCN(C3CCCC(C)C3)C2)cc1 (stereo partly shown) (as salt: hydrochloride) | 181 to 183 °C
Cc1nc2ccccc2n1-c1ccc(C(=O)N(C)[C@H]2CCN(CC3CC3)C2)cc1 (as salt: hydrochloride) | 179 to 180 °C

SMILES | melting point
Cc1nc2ccccc2n1-c1ccc(C(=O)N(C)[C@@H]2CCN(CC(C)C)C2)cc1 (as salt: hydrochloride) | 189 to 190 °C
Cc1nc2ccccc2n1-c1ccc(C(=O)N(C)[C@@H]2CCN(C3CCCCC3)C2)cc1 (as salt: hydrochloride) | 193 to 194 °C
Cc1nc2ccccc2n1-c1ccc(C(=O)N(C)[C@@H]2CCN(CC3CC3)C2)cc1 (as salt: hydrochloride) | 185 to 186 °C
Cc1nc2ccccc2n1-c1ccc(C(=O)N(C)[C@@H]2CCN(CC3CCCC3)C2)cc1 (as salt: hydrochloride) | 190 to 192 °C
Cc1nc2ccccc2n1-c1ccc(C(=O)N(C)C2CCNCC2)cc1 (as salt: hydrochloride) [Example 30, N-Methyl-4-(2-methylbenzimidazol-1-yl)-N-piperidin-4-yl-benzamide Hydrochloride] | 219 to 221 °C
Cc1nc2ccccc2n1-c1ccc(C(=O)N(C)C2CCN(C(C)C)CC2)cc1 (as salt: hydrochloride) [Example 31, N-(1-isopropylpiperidin-4-yl)-N-methyl-4-(2-methyl-1H-benzimidazol-1-yl)benzamide] | 282 to 284 °C
Cc1nc2ccccc2n1-c1ccc(C(=O)N(C)C2CCN(C3CCCC3)CC2)cc1 (as salt: hydrochloride) [Example 32, N-(1-cyclopentylpiperidin-4-yl)-N-methyl-4-(2-methyl-1H-benzimidazol-1-yl)benzamide] | 270 °C (dec.)
Cc1nc2ccccc2n1-c1ccc(C(=O)N(C)C2CCN(C3CCCCC3)CC2)cc1 (as salt: hydrochloride) [Example 33, N-(1-cyclohexylpiperidin-4-yl)-N-methyl-4-(2-methyl-1H-benzimidazol-1-yl)benzamide] | 285 °C (dec.)
Cc1nc2ccccc2n1-c1ccc(C(=O)N(C)C2CCN(C3CCC3)CC2)cc1 (as salt: hydrochloride) [Example 34, N-(1-cyclobutylpiperidin-4-yl)-N-methyl-4-(2-methyl-1H-benzimidazol-1-yl)benzamide] | 280 °C (dec.)
Cc1nc2ccccc2n1Cc1ccc(C(=O)N(C)[C@@H]2CCNC2)cc1 (as salt: hydrochloride) [Example 35, N-Methyl-4-[(2-methylbenzimidazol-1-yl)methyl]-N—(R)-pyrrolidin-3-yl-benzamide Hydrochloride] | 126 to 128 °C
CN(C(=O)c1ccc(Cn2cnc3ccccc32)cc1)[C@@H]1CCNC1 (as salt: hydrochloride) [Example 36, (R)-4-((1H-benzo[d]imidazol-1-yl)methyl)-N-methyl-N-(pyrrolidin-3-yl)benzamide Hydrochloride] | 150 to 152 °C
Cc1nc2ccccc2n1Cc1ccc(C(=O)N(C)[C@@H]2CCN(C3CCCCC3)C2)cc1 (as salt: hydrochloride) [Example 40, N-[(3R)-1-cyclohexylpyrrolidin-3-yl]-N-methyl-4-[(2-methyl-1H-benzimidazol-1-yl)methyl]benzamide] | 188 to 190 °C
Cc1nc2ccccc2n1Cc1ccc(C(=O)N(C)C2CCN(C(C)C)CC2)cc1 (as salt: hydrochloride) [Example 46, N-(1-isopropylpiperidin-4-yl)-N-methyl-4-[(2-methyl-1H-benzimidazol-1-yl)methyl]benzamide] | 200 to 202 °C
Cc1nc2ccccc2n1Cc1ccc(C(=O)N(C)C2CCN(C3CCC3)CC2)cc1 (as salt: hydrochloride) [Example 47, N-(1-cyclobutylpiperidin-4-yl)-N-methyl-4-[(2-methyl-1H-benzimidazol-1-yl)methyl]benzamide] | 280 °C (dec.)
Cc1nc2ccccc2n1Cc1ccc(C(=O)N(C)C2CCN(C3CCCC3)CC2)cc1 (as salt: hydrochloride) [Example 48, N-(1-cyclopentylpiperidin-4-yl)-N-methyl-4-[(2-methyl-1H-benzimidazol-1-yl)methyl]benzamide] | 280 °C (dec.)
CC(C)N1CCC(N(C)C(=O)c2ccc(Cn3cnc4ccccc43)cc2)CC1 (as salt: hydrochloride) [Example 49, 4-(1H-benzimidazol-1-ylmethyl)-N-(1-isopropylpiperidin-4-yl)-N-methylbenzamide] | 185 to 187 °C
CN(C(=O)c1ccc(Cn2cnc3ccccc32)cc1)C1CCN(C2CCC2)CC1 (as salt: hydrochloride) [Example 50, 4-(1H-benzimidazol-1-ylmethyl)-N-(1-cyclobutylpiperidin-4-yl)-N-methylbenzamide] | 238 to 240 °C
